Reference: patent publication US8952024B2, “Herbicidal pyrimidone derivatives” (E I du Pont de Nemours and Company, priority 2009, dated 2015)

Columns and labels:
Assay type in all cases: in vivo
[1] = system: barnyardgrass (Echinochloa crus-galli); assay: Test B flooded paddy test; settings: for Plant response rating, Barnyardgrass: Flood (flooded paddy test), 13 to 15 days
Outline: (§1)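 Rice, umbrella sedge, ducksalad and barnyardgrass were grown to the 2-leaf stage, flooded to 3 cm, and compound was applied directly to the paddy water, with that depth kept throughout. After 13 to 15 days in the greenhouse, plants were visually rated against controls on a 0 (no effect) to 100 (complete control) scale.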

[2] = system: umbrella sedge (Cyperus difformis); assay: Test B flooded paddy test; settings: for Plant response rating, Sedge, Umbrella: Flood (flooded paddy test), 13 to 15 days
Outline: as §1

[3] = system: ducksalad (Heteranthera limosa); assay: Test B flooded paddy test; settings: for Plant response rating, Ducksalad: Flood (flooded paddy test), 13 to 15 days
Outline: as §1

[4] = system: rice (Oryza sativa); assay: Test B flooded paddy test; settings: for Plant response rating, Rice: Flood (flooded paddy test), 13 to 15 days
Outline: as §1

[5] = system: morningglory (Ipomoea spp.); assay: Test A pre-/postemergence plant response
Outline: (§2)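 Injury scores (0, no effect; 100, complete control) come from visual comparison with untreated controls roughly ten days post-treatment. Test chemicals in a surfactant-containing non-phytotoxic solvent were applied as a directed soil spray preemergence and to one- to two-leaf seedlings postemergence.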

[6] = system: pigweed (Amaranthus retroflexus); assay: Test A pre-/postemergence plant response
Outline: as §2

[7] = system: woolly cupgrass (Eriochloa villosa); assay: Test B pre-/postemergence plant response
Outline: (§3)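 Visually scored on a 0 to 100 scale after 13 to 15 days in greenhouse versus controls. Treatments were preemergence on seeded loam/sand soil and postemergence on 1- to 4-leaf plants.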

[8] = system: wheat (Triticum aestivum); assay: Test B pre-/postemergence plant response
Outline: as §3

[9] = system: morningglory (Ipomoea coccinea); assay: Test B pre-/postemergence plant response
Outline: as §3

[10] = system: giant foxtail (Setaria faberii); assay: Test B pre-/postemergence plant response
Outline: as §3

[11] = system: johnsongrass (Sorghum halepense); assay: Test B pre-/postemergence plant response
Outline: as §3

[12] = system: goosegrass (Eleusine indica); assay: Test B pre-/postemergence plant response
Outline: as §3

[13] = 250 g ai/ha, flooded paddy test, visual rating on 0 to 100 scale (0 no effect, 100 complete control) after 13 to 15 days
[14] = 31 g ai/ha, scale of 0 to 100 where 0 is no effect and 100 is complete control
[15] = 62 g ai/ha, scale 0 to 100, 0 is no effect, 100 is complete control
[16] = 125 g ai/ha, scale 0 to 100, 0 is no effect, 100 is complete control
[17] = Postemergence, 125 g ai/ha, visual injury, 0 to 100 scale (0 no effect, 100 complete control), approx. ten days
[18] = Postemergence, 500 g ai/ha, 0 to 100 scale, 0 = no effect, 100 = complete control, approx. ten days
[19] = Preemergence, 125 g ai/ha, 0 to 100 scale, 0 = no effect, 100 = complete control
[20] = Preemergence, 500 g ai/ha, visual injury, 0 to 100 scale (0 no effect, 100 complete control), approx. ten days
[21] = 250 g ai/ha, Preemergence, 0 to 100 scale
[22] = Postemergence, 31 g ai/ha, scale 0 to 100 (0 no effect, 100 complete control)
[23] = Postemergence, 62 g ai/ha, scale 0 (no effect) to 100 (complete control), 13 to 15 days
[24] = Postemergence, 125 g ai/ha, visual rating after 13 to 15 days, scale 0 (no effect) to 100 (complete control)
[25] = Postemergence, 250 g ai/ha, scale 0 to 100
[26] = Preemergence, 31 g ai/ha, scale 0 to 100 (0 no effect, 100 complete control)
[27] = Preemergence, 62 g ai/ha, scale 0 to 100, 0 no effect, 100 complete control
[28] = Preemergence, 125 g ai/ha, 0 to 100 scale

5-[(2-hydroxy-6-oxo-1-cyclohexen-1-yl)carbonyl]-3-phenyl-2-(3-pyridinyl)-4(3H)-pyrimidone [Compound 113]
35: Plant response rating, Goosegrass [12, 24] | Goosegrass plant response rating [12, 25]
25: Plant response rating, Foxtail, Giant [10, 21] | Plant response rating, Goosegrass [12, 23]
20: Plant response rating, Morningglory [9, 21] | Morningglory plant response rating [9, 25] | Plant response rating, Foxtail, Giant [10, 22] | Plant response rating, Goosegrass [12, 22]
55: Plant response rating, Foxtail, Giant [10, 23] | Plant response rating, Foxtail, Giant [10, 24]
45: Plant response rating, Cupgrass, Woolly [7, 21] | Goosegrass plant response rating [12, 28]
40: Plant response rating, Morningglory [5, 20]
65: Cupgrass, Woolly plant response rating [7, 25]
50: Plant response rating, Cupgrass, Woolly [7, 23] | Plant response rating, Cupgrass, Woolly [7, 24]
60: Foxtail, Giant plant response rating [10, 25] | Plant response rating, Goosegrass [12, 21]
15: Wheat plant response rating [8, 25] | Plant response rating, Morningglory [9, 22] | Plant response rating, Morningglory [9, 23] | Plant response rating, Morningglory [9, 24]
10: Plant response rating, Pigweed [6, 19] | Plant response rating, Wheat [8, 24] | Plant response rating, Goosegrass [12, 26]
80: Pigweed plant response rating [6, 17] | Plant response rating, Pigweed [6, 20]
100: Morningglory plant response rating [5, 17] | Plant response rating, Morningglory [5, 18] | Plant response rating, Pigweed [6, 18]
0: Plant response rating, Flood, Barnyardgrass [1, 13] | Plant response rating, Barnyardgrass [1, 14] | Plant response rating, Barnyardgrass [1, 15] | Plant response rating, Barnyardgrass [1, 16] | Plant response rating, Flood, Sedge, Umbrella [2, 13] | Plant response rating, Sedge, Umbrella [2, 14] | Plant response rating, Sedge, Umbrella [2, 15] | Plant response rating, Sedge, Umbrella [2, 16] | Plant response rating, Flood, Ducksalad [3, 13] | Plant response rating, Ducksalad [3, 14] | Plant response rating, Ducksalad [3, 15] | Plant response rating, Ducksalad [3, 16] | Plant response rating, Flood, Rice [4, 13] | Plant response rating, Rice [4, 14] | Plant response rating, Rice [4, 15] | Plant response rating, Rice [4, 16] | Plant response rating, Morningglory [5, 19] | Plant response rating, Cupgrass, Woolly [7, 22] | Plant response rating, Cupgrass, Woolly [7, 26] | Plant response rating, Cupgrass, Woolly [7, 27] | Cupgrass, Woolly plant response rating [7, 28] | Plant response rating, Wheat [8, 21] | Plant response rating, Wheat [8, 22] | Plant response rating, Wheat [8, 23] | Plant response rating, Wheat [8, 26] | Plant response rating, Wheat [8, 27] | Wheat plant response rating [8, 28] | Plant response rating, Morningglory [9, 27] | Morningglory plant response rating [9, 28] | Plant response rating, Foxtail, Giant [10, 26] | Plant response rating, Foxtail, Giant [10, 27] | Foxtail, Giant plant response rating [10, 28] | Plant response rating, Johnsongrass [11, 21] | Plant response rating, Johnsongrass [11, 22] | Plant response rating, Johnsongrass [11, 23] | Plant response rating, Johnsongrass [11, 24] | Johnsongrass plant response rating [11, 25] | Plant response rating, Johnsongrass [11, 26] | Plant response rating, Johnsongrass [11, 27] | Johnsongrass plant response rating [11, 28]
